Results as given in patent US10189786B2, “Antibacterial compounds” (Duke University, priority 2013, dated 2019).
Values after ≈ are worked out from the molar mass of the structure shown.

Experiments:
[1] = tested on: E. coli W3110; experiment: microbe, parasite or virus in culture; type: cell-based; settings: wild-type E. coli W3110, 22 hours at 37° C., MTT; for MIC: Escherichia coli, W3110, 22 h
[2] = tested on: P. aeruginosa PAO1; experiment: MIC assay, P. aeruginosa PAO1; type: cell-based; settings: for MIC P. aeruginosa PAO1: unit from b306; for MIC: Pseudomonas aeruginosa
[3] = tested on: E. coli W3110PA; experiment: microbe, parasite or virus in culture; type: cell-based; settings: E. coli with native lpxC replaced by that of P. aeruginosa; for MIC E. coli W3110PA: unit from b306; for MIC: Escherichia coli, W3110PA
[4] = tested on: N. gonorrhoeae FA19 (a drug-sensitive strain); experiment: Disk diffusion assay, N. gonorrhoeae FA19; type: cell-based; settings: disc 6 mm; for zone of inhibition at 2 µg/disc / zone of inhibition at 20 µg/disc / zone of inhibition at 0.2 µg/disc: Neisseria gonorrhoeae, read-out: diameter of the growth inhibition, FA19
Protocol: (§1) An assay was performed on two strains of Acinetobacter Baumannii: antibiotic susceptible strain (Sus. A.b. Isolate), and multidrug-resistant strains (MDR A.b. Isolate). […] Activity is measured as the diameter (in mm) of the growth inhibition.

[5] = tested on: N. gonorrhoeae 35/02 (drug-resistant strain); experiment: Disk diffusion assay, N. gonorrhoeae 35/02; type: cell-based; settings: disc 6 mm; for zone of inhibition at 0.2 µg/disc / zone of inhibition at 2 µg/disc / zone of inhibition at 20 µg/disc: Neisseria gonorrhoeae, read-out: diameter of the growth inhibition, 35/02; for zone of inhibition at 0.2 µg/disc: 0.2 μg per disc
Protocol: as §1

[6] = tested on: N. gonorrhoeae F89 (high-level cefixime and ceftriaxone resistance); experiment: Disk diffusion assay, N. gonorrhoeae F89; type: cell-based; settings: disc 6 mm; for zone of inhibition at 0.2 µg/disc / zone of inhibition at 2 µg/disc / zone of inhibition at 20 µg/disc: Neisseria gonorrhoeae, read-out: diameter of the growth inhibition, F89
Protocol: as §1

[7] = tested on: N. gonorrhoeae H041; experiment: Disk diffusion assay, N. gonorrhoeae H041; type: cell-based; settings: disc 6 mm; for zone of inhibition at 0.2 µg/disc / zone of inhibition at 2 µg/disc / zone of inhibition at 20 µg/disc: Neisseria gonorrhoeae, read-out: diameter of the growth inhibition, H041; for zone of inhibition at 0.2 µg/disc: H041, 0.2 μg per disc; for zone of inhibition at 2 µg/disc: H041, 2.0 μg per disc; for zone of inhibition at 20 µg/disc: H041, 20 μg per disc
Protocol: as §1

[8] = tested on: E. coli W3110NG; experiment: MIC assay, E. coli W3110NG; type: cell-based; settings: Escherichia coli
[9] = tested on: F. novicida U112 (FNU112); experiment: microbe, parasite or virus in culture; type: cell-based; settings: Francisella tularensis, read-out: MIC FNU112
[10] = tested on: N. gonorrhoeae (FA35/02); experiment: MIC assay, N. gonorrhoeae 35/02; type: cell-based; settings: drug-resistant strain; for MIC: Neisseria gonorrhoeae
Protocol: MICs are determined according to the NCCLS protocol using 96-well plates. Briefly, diluted bacterial cells (10^6 cells/mL) are added into each well of the 96-well plates containing LB medium with 5% DMSO and various concentrations of the compound of disclosure. After incubation of the plates for 22 hours at 37° C., [4,5-dimethylthiazol-2-yl]-2,5-diphenyltetrazolium bromide solution (MTT) is added (final concentration, 0.2 mg/mL) and incubated at 37° C. for another 3 hrs. MIC is determined as the lowest concentration of an antibiotic that prevented color change (yellow to purple).
The antibiotic activities of several exemplary compounds useful in the methods of the disclosure are evaluated by measurements of minimum inhibitory concentrations (MICs) using two N. gonorrhoeae strains: FA19 (a drug-sensitive strain) and 35/02 (drug-resistant strain.) FA19 is an isolate from uncomplicated infection and was lyophilized in 1962. […] The strain is being sequenced to elucidate the mechanisms involved in high-level chromosomally mediated resistance.

[11] = tested on: N. gonorrhoeae (FA35/02); settings: description of the resistance of strain 35/02; cited from earlier work
[12] = 0.2 μg per disc, listed as 3 (Isomer B)

Row | Molecule | MIC [1] [µg/mL] | zone of inhibition at 2 µg/disc ([4]; 2.0 μg per disc) [mm] | zone of inhibition at 20 µg/disc ([4]; 20 μg per disc) [mm] | zone of inhibition at 0.2 µg/disc [5] [mm] | zone of inhibition at 2 µg/disc ([5]; 2.0 μg per disc) [mm] | zone of inhibition at 20 µg/disc ([5]; 20 μg per disc) [mm] | zone of inhibition at 0.2 µg/disc ([6]; 0.2 μg per disc) [mm] | zone of inhibition at 2 µg/disc ([6]; 2.0 μg per disc) [mm] | zone of inhibition at 20 µg/disc ([6]; 20 μg per disc) [mm] | zone of inhibition at 0.2 µg/disc [7] [mm] | zone of inhibition at 2 µg/disc [7] [mm] | zone of inhibition at 20 µg/disc [7] [mm] | MIC ([2]; PAO1, P. aeruginosa PAO1) [µg/mL] | MIC [3] [µg/mL] | zone of inhibition at 0.2 µg/disc ([4]; 0.2 μg per disc) [mm] | further results
1 | CC(CCc1ccc(-c2ccccc2)cc1)(C(=O)NO)C(C)(O)C(F)F (single isomer, unassigned) [Example 3 Isomer A, 2-(2-(biphenyl-4-yl)ethyl)-4,4-difluoro-N,3-dihydroxy-2,3-dimethylbutanamide] | 50 (≈ 138 µM) | 20 | 30 | 0 | 13 | 19 | 18 | 27 | 33 | 9 | 16 | 24 | – | – | – | MIC P. aeruginosa PAO1 ([2]; P. aeruginosa PAO1, listed as 3 Isomer A): 6.3 µg/mL (≈ 17.3 µM); MIC E. coli W3110PA ([3]; listed as 3 Isomer A): 3.1 µg/mL (≈ 8.53 µM); diameter of the growth inhibition, FA19 ([4]; 0.2 μg per disc, listed as 3 (Isomer A)): 11 mm
2 | CC(CCc1ccc(-c2ccccc2)cc1)(C(=O)NO)C(C)(O)C(F)F (single isomer, unassigned) [Example 3 Isomer B, 2-(2-(biphenyl-4-yl)ethyl)-4,4-difluoro-N,3-dihydroxy-2,3-dimethylbutanamide] | – | – | – | – | – | – | – | – | – | – | – | – | – | – | – | MIC E. coli W3110 [1]: >50 µg/mL; MIC P. aeruginosa PAO1 ([2]; P. aeruginosa PAO1, listed as 3 Isomer B): 25 µg/mL (≈ 68.8 µM); MIC E. coli W3110PA ([3]; listed as 3 Isomer B): 25 µg/mL (≈ 68.8 µM); diameter of the growth inhibition, FA19 [4, 12]: 0 mm; diameter of the growth inhibition, FA19 ([4]; 2.0 μg per disc): 15 mm; diameter of the growth inhibition, FA19 ([4]; 20 μg per disc): 23 mm; diameter of the growth inhibition, 35/02 ([5]; 2.0 μg per disc): 8 mm; diameter of the growth inhibition, 35/02 ([5]; 20 μg per disc): 19 mm; diameter of the growth inhibition, F89 [6, 12]: 10 mm; diameter of the growth inhibition, F89 ([6]; 2.0 μg per disc): 20 mm; diameter of the growth inhibition, F89 ([6]; 20 μg per disc): 27 mm; diameter of the growth inhibition, H041 [7, 12]: 8 mm; diameter of the growth inhibition, H041 ([7]; 2.0 μg per disc): 10 mm; diameter of the growth inhibition, H041 ([7]; 20 μg per disc): 20 mm
3 | CC(C)(O)C(C)(CCc1ccc(-c2ccccc2)cc1)C(=O)NO (stereo not drawn) [Example 2, 2-(2-(biphenyl-4-yl)ethyl)-N,3-dihydroxy-2,3-dimethylbutanamide] | > 50 | – | – | – | – | – | – | – | – | – | – | – | 25 (≈ 76.4 µM) | 25 (≈ 76.4 µM) | – | –
4 | CC(CCn1ccc(-c2ccc(-n3nccn3)cc2)cc1=O)(C(=O)NO)C(C)(O)C(F)F (stereo not drawn) [Example 4, 2-(2-(4-(4-(2H-1,2,3-triazol-2-yl)phenyl)-2-oxopyridin-1 (2H)-yl)ethyl)-4,4-difluoro-N,3-dihydroxy-2,3-dimethylbutanamide] | 3.12 (≈ 6.97 µM) | 8 | 19 | 0 | 11 | 16 | 7 | 15 | 26 | 7 | 10 | 16 | – | 3.13 (≈ 7 µM) | 0 | –
5 | C[C@@](O)(C(F)F)[C@H](NCc1ccc(-c2ccccc2)cc1)C(=O)NO [Example 5, (2S,3S)-2-(biphenyl-4-ylmethylamino)-4,4-difluoro-N,3-dihydroxy-3-methylbutanamide] | 25 (≈ 71.4 µM) | 25 | 29 | 0 | 16 | 24 | 8 | 27 | 36 | 7 | 17 | 25 | 3.1 (≈ 8.85 µM) | 3.1 (≈ 8.85 µM) | 0 | –
6 | CC(NCc1ccc(-c2ccccc2)cc1)(C(=O)NO)C(C)(O)C(F)F (stereo not drawn) [Example 6, 2-(biphenyl-4-ylmethylamino)-4,4-difluoro-N,3-dihydroxy-2,3-dimethylbutanamide] | > 50 | 22 | – | – | – | – | – | – | – | – | – | – | – | 12.5 (≈ 34.3 µM) | – | MIC ([2]; P. aeruginosa PAO1): 12.5 µg/mL (≈ 34.3 µM)
7 | C[C@@H](O)[C@H](NCc1ccc(-c2ccccc2)cc1)C(=O)NO [Example 9, (2S,3R)-2-(biphenyl-4-ylmethylamino)-N,3-dihydroxybutanamide] | 25 (≈ 83.2 µM) | – | – | – | – | – | – | – | – | – | – | – | 5.4 (≈ 18 µM) | 4.8 (≈ 16 µM) | – | MIC [8]: > 50 µg/mL; MIC [9]: > 5 µg/mL
8 | CC(NCCCc1ccc(-c2ccccc2)cc1)(C(=O)NO)C(C)(O)C(F)F (stereo not drawn) [Example 10, 2-(3-(biphenyl-4-yl)propylamino)-4,4-difluoro-N,3-dihydroxy-2,3-dimethylbutanamide] | 61.2 (≈ 156 µM) | 25 to 27 | 30 | 15 | 20 | 27 | 20 | 28 | 35 | 13 | 20 | 27 | 2.5 (≈ 6.37 µM) | – | 17 | MIC [10]: 0.06 µg/mL (≈ 0.153 µM)
9 | C[C@@](O)(C(F)F)[C@H](NCCCc1ccc(-c2ccccc2)cc1)C(=O)NO [Example 11, (2S,3S)-2-(3-(biphenyl-4-yl)propylamino)-4,4-difluoro-N,3-dihydroxy-3-methylbutanamide] | 1.25 (≈ 3.3 µM) | 25 | 30 | 14 | 23 | 26 | 19 | 26 | 33 | 11 | 20 | 27 | 2.5 (≈ 6.61 µM) | 1.25 (≈ 3.3 µM) | 18 | MIC [10]: 0.03 to 0.06 µg/mL (≈ 0.0793 to 0.159 µM); MIC N. gonorrhoeae (FA35/02) [10]: 0.03 µg/mL (≈ 0.0793 µM)
10 | COc1ccc(-c2ccn(CCC(C)(C(=O)NO)S(C)(=O)=O)c(=O)c2)cc1 (stereo not drawn) [Example 13, N-hydroxy-4-(4-(4-methoxyphenyl)-2-oxopyridin-1 (2H)-yl)-2-methyl-2-(methylsulfonyl)butanamide] | < 0.78 | – | – | – | – | – | – | – | – | – | – | – | < 0.78 | < 0.78 | – | MIC [8]: 1.25 µg/mL (≈ 3.17 µM); MIC [9]: 1.25 µg/mL (≈ 3.17 µM)
11 | C[C@@](O)(C(F)F)[C@H](NC(=O)CCc1ccc(-c2ccccc2)cc1)C(=O)NO [Example 14, (2S,3S)-2-(3-(biphenyl-4-yl)propanamido)-4,4-difluoro-N,3-dihydroxy-3-methylbutanamide] | 6.25 (≈ 15.9 µM) | 27 | 30 | 14 | 22 | 28 | 18 | 27 | 34 | 7 | 20 | 26 | – | 12.5 (≈ 31.9 µM) | 18 | MIC [9]: 12.5 µg/mL (≈ 31.9 µM); MIC [10]: 0.25 µg/mL (≈ 0.637 µM)
12 | CC(CCc1ccc(-c2ccccc2)cc1)(C(=O)NO)S(C)(=O)=O (stereo not drawn) [Example 133] | 3.13 (≈ 9.01 µM) | – | – | – | – | – | – | – | – | – | – | – | 0.39 (≈ 1.12 µM) | 0.38 (≈ 1.09 µM) | – | MIC [9]: 3.13 µg/mL (≈ 9.01 µM)
13 | CO/N=C(\C(=O)N[C@@H]1C(=O)N2C(C(=O)O)=C(CSc3nc(=O)c(=O)[nH]n3C)CS[C@H]12)c1csc(N)n1 [ceftriaxone] | – | – | – | – | – | – | – | – | – | – | – | – | – | – | – | MIC of reference antibiotics against N. gonorrhoeae 35/02 [11]: 0.12 µg/mL
14 | penicillin | – | – | – | – | – | – | – | – | – | – | – | – | – | – | – | MIC of reference antibiotics against N. gonorrhoeae 35/02 [11]: 6 µg/mL
